Assay results reported in patent US6969711B2, “Cyclic diamine compounds and medicine containing the same” (Kowa Company, Ltd., priority 1997, dated 2005).

Row | SMILES | melting point
1 | CC(C)c1cc(O)cc(C(C)C)c1NC(=O)CN1CCN(CCSc2nc3ccccc3[nH]2)CC1 [Example 156, 2-[4-[2-(benzimidazol-2-ylthio)ethyl]piperazin-1-yl]-N-(2,6-diisopropyl-4-hydroxyphenyl)acetamide] | 241 to 242 °C
2 | CC(C)c1ccc(OS(C)(=O)=O)c(C(C)C)c1NC(=O)CN1CCN(CCSc2nc3ccccc3o2)CC1 [Example 62, 2-[4-[2-(benzoxazol-2-ylthio)ethyl]-piperazin-1-yl]-N-(2,6-diisopropyl-3-mesyloxyphenyl)acetamide] | 164 to 166 °C (dec.)
3 | CCSC1=C(NC(=O)CN2CCN(CCSc3nc4c(C)c(Cl)cc(C(C)C)c4o3)CC2)C=CC(C)(SCC)N1 (centres unmarked) [Example 109, 2-[4-[2-(5-chloro-7-isopropyl-4-methylbenzoxazol-2-ylthio)ethyl]piperazin-1-yl]-N-[2,6-bis(ethylthio)-6-methyl-3-pyridyl]acetamide] | 120 to 122 °C
4 | Cc1cc(C)c(NC(=O)CN2CCN(CCSc3nc4ccccc4o3)CC2)c(C)n1 [Example 47, 2-[4-[2-(benzoxazol-2-ylthio)ethyl]piperazin-1-yl]-N-(2,4,6-trimethyl-3-pyridyl)acetamide] | 159 to 160 °C
5 | Cc1cc(SC(C)C)c(NC(=O)CN2CCN(CCSc3nc4ccccc4[nH]3)CC2)c(SC(C)C)n1 [Example 37, 2-[4-[2-(benzimidazol-2-ylthio)ethyl]piperazin-1-yl]-N-(2,4-bis(isopropylthio)-6-methyl-3-pyridyl)acetamide] | 186 to 188 °C
6 | CC(C)c1cccc(C(C)C)c1NC(=O)CN1CCN(CCSc2nc3cccc(C(F)(F)F)c3o2)CC1 [Example 85, 2-[4-[2-(7-trifluoromethylbenzoxazol-2-ylthio)ethyl]piperazin-1-yl]-N-(2,6-diisopropylphenyl)acetamide] | 135 to 137 °C (dec.)
7 | CC(C)c1cccc(C(C)C)c1NC(=O)CN1CCCN(CCCSc2nc3ncccc3o2)CC1 [Example 15, 2-[4-[3-(oxazolo[4,5-b]pyridin-2-ylthio)propyl]homopiperazin-1-yl]-N-(2,6-diisopropylphenyl)acetamide] | 73 to 75 °C
8 | CCCCCCCN(CCN1CCN(CCSc2nc3ccccc3[nH]2)CC1)C(=O)Nc1c(SCC)cc(C)nc1SCC.Cl.Cl | 134 to 137 °C
9 | CSc1cc(C)nc(SC)c1NC(=O)CCN1CCN(CCCSc2nc3ncccc3o2)CC1.Cl.Cl | 224 to 227 °C
10 | CC(C)c1cccc(C(C)C)c1NC(=O)CCN1CCN(CCCSc2nc3ccccc3o2)CC1 [Example 23, 3-[4-[3-(benzoxazol-2-ylthio)propyl]piperazin-1-yl]-N-(2,6-diisopropylphenyl)propanamide] | 93 to 95 °C
11 | COc1ccc(C(C)C)c(NC(=O)CN2CCN(CCSc3nc4ccccc4o3)CC2)c1C(C)C.Cl.Cl | 218 to 222 °C
12 | COC(=O)c1ccc2nc(SCCN3CCN(CC(=O)Nc4c(C(C)C)cccc4C(C)C)CC3)oc2c1C(=O)OC [Example 99, 2-[4-[2-(6,7-bis(methoxycarbonyl)benzoxazol-2-ylthio]ethyl]piperazin-1-yl]-N-(2,6-diisopropylphenyl)acetamide] | 186 to 187 °C
13 | COc1ccc(C(C)C)c(NC(=O)CN2CCN(CCCSc3nc4ccccc4o3)CC2)c1C(C)C [Example 70, 2-[4-[3-(benzoxazol-2-ylthio)propyl]piperazin-1-yl]-N-(2,6-diisopropyl-3-methoxyphenyl)acetamide] | 105 to 107 °C
14 | Cc1cc(SC(C)C)c(NC(=O)CN2CCN(CCCSc3nc4ccccc4o3)CC2)c(SC(C)C)n1.Cl.Cl | 178 to 181 °C
15 | CC(C)c1ccc(N(C)C)c(C(C)C)c1NC(=O)CN1CCN(CCSc2nc3ccccc3o2)CC1 [Example 59, 2-[4-[2-(benzoxazol-2-ylthio)ethyl]piperazin-1-yl]-N-(2,6-diisopropyl-3-dimethylaminophenyl)acetamide] | 159 to 161 °C
16 | Cc1cc(SC(C)C)c(NC(=O)CN2CCN(CCSc3nc4cccc([N+](=O)[O-])c4o3)CC2)c(SC(C)C)n1 [Example 107, 2-[4-[2-(7-nitrobenzoxazol-2-ylthio)ethyl]-piperazin-1-yl]-N-[2,4-bis(isopropylthio)-6-methyl-3-pyridyl]acetamide] | 57 to 59 °C
17 | CC(C)c1cc(O)cc(C(C)C)c1NC(=O)CN1CCN(CCCSc2nc3ccccc3o2)CC1 [Example 118, 2-[4-[3-(benzoxazol-2-ylthio)propyl]piperazin-1-yl]-N-(2,6-diisopropyl-4-hydroxyphenyl)acetamide] | 201 to 203 °C
18 | CCSc1cc(C)nc(SCC)c1NC(=O)CN1CCN(CCSc2nc3ccccc3o2)CC1 [Example 34, 2-[4-[2-(benzoxazol-2-ylthio)ethyl]piperazin-1-yl]-N-[2,4-bis(ethylthio)-6-methyl-3-pyridyl]acetamide] | 108 to 109 °C
19 | CCOCCOc1cc(C(C)C)c(NC(=O)CN2CCN(CCCSc3nc4ccccc4o3)CC2)c(C(C)C)c1 [Example 120, 2-[4-[3-(benzoxazol-2-ylthio)propyl]piperazin-1-yl]-N-[2,6-diisopropyl-4-(2-ethoxyethyloxy)phenyl]acetamide] | 115 to 117 °C

Row | SMILES | melting point
20 | CC(C)c1cc(OS(C)(=O)=O)cc(C(C)C)c1NC(=O)CN1CCN(CCSc2nc3ccccc3o2)CC1 [Example 74, 2-[4-[2-(benzoxazol-2-ylthio)ethyl]piperazin-1-yl]-N-(2,6-diisopropyl-4-mesyloxyphenyl)acetamide] | 115 to 117 °C
21 | COc1cc(C)nc(OC)c1NC(=O)CN1CCN(CCSc2nc3ccccc3o2)CC1 [Example 45, 2-[4-[2-(benzoxazol-2-ylthio)ethyl]piperazin-1-yl]-N-[2,4-dimethoxy-6-methyl-3-pyridyl)acetamide] | 113 to 115 °C
22 | CC(C)c1ccc(O)c(C(C)C)c1NC(=O)CN1CCN(CCSc2nc3cccc(C(F)(F)F)c3o2)CC1 [Example 130, 2-[4-[2-(7-trifluoromethylbenzoxazol-2-ylthio)ethyl]piperazin-1-yl]-N-(2,6-diisopropyl-3-hydroxyphenyl)acetamide] | 82 to 84 °C
23 | CCOCCOc1cc(C(C)C)c(NC(=O)CN2CCN(CCSc3nc4ccccc4o3)CC2)c(C(C)C)c1 [Example 78, 2-[4-[2-(benzoxazol-2-ylthio)ethyl]piperazin-1-yl]-N-[2,6-diisopropyl-4-(2-ethoxyethyl)oxyphenyl)acetamide] | 92 to 95 °C
24 | CC(C)c1ccc(NS(C)(=O)=O)c(C(C)C)c1NC(=O)CN1CCN(CCSc2nc3cccc(C(F)(F)F)c3o2)CC1.O=C(O)/C=C\C(=O)O.O=C(O)/C=C\C(=O)O | 172 to 174 °C
25 | CC(C)c1cccc(C(C)C)c1NC(=O)CN1CCN(CCSc2nc3cccc(-c4cc[nH]n4)c3o2)CC1 [Example 103, 2-[4-[2-[7-(pyrazol-3-yl)benzoxazol-2-ylthio]ethyl]piperazin-1-yl]-N-(2,6-diisopropylphenyl)acetamide] | 181 to 183 °C
26 | CSc1cc(C)nc(SC)c1NC(=O)CN1CCN(CCSc2nc3ccccc3s2)CC1 [Example 31, 2-[4-[2-(benzothiazol-2-ylthio)ethyl]piperazin-1-yl]-N-(2,4-bis(methylthio)-6-methyl-3-pyridyl)acetamide] | 136 to 139 °C
27 | CCCCCCCN(CCN1CCN(CCSc2nc3ccccc3o2)CC1)C(=O)Nc1c(C(C)C)cccc1C(C)C [Example 16, N-[2-[4-[2-(benzoxazol-2-ylthio)ethyl]piperazin-1-yl]ethyl]-N′-(2,6-diisopropylphenyl)-N-heptylurea] | 110 to 111 °C
28 | CC(C)c1ccc(O)c(C(C)C)c1NC(=O)CN1CCN(CCSc2nc3ccccc3o2)CC1 [Example 61, 2-[4-[2-(benzoxazol-2-ylthio)ethyl]piperazin-1-yl]-N-(2,6-diisopropyl-3-hydroxyphenyl)acetamide] | 96 to 98 °C
29 | COCc1ccc2nc(SCCN3CCN(CC(=O)Nc4c(C(C)C)cccc4C(C)C)CC3)oc2c1COC [Example 100, 2-[4-[2-(6,7-bis(methoxymethyl)benzoxazol-2-ylthio]ethyl]piperazin-1-yl]-N-(2,6-diisopropylphenyl)acetamide] | 96 to 97 °C
30 | CC(C)c1cc(OC(=O)[C@H](C)N)cc(C(C)C)c1NC(=O)CN1CCN(CCSc2nc3ccccc3o2)CC1.O=C(O)C(F)(F)F.O=C(O)C(F)(F)F.O=C(O)C(F)(F)F | 183 to 184 °C
31 | CC(C)c1ccc([N+](=O)[O-])c(C(C)C)c1NC(=O)CN1CCN(CCSc2nc3cccc(C(F)(F)F)c3o2)CC1 [Example 87, 2-[4-[2-(7-trifluoromethylbenzoxazol-2-ylthio)ethyl]piperazin-1-yl]-N-(2,6-diisopropyl-3-nitrophenyl)acetamide] | 115 to 117 °C
32 | CSc1ncccc1NC(=O)CN1CCN(CCSc2nc3ccccc3o2)CC1.Cl.Cl | 186 to 189 °C
33 | Cc1c(Cl)cc(C(C)C)c2oc(SCCN3CCN(CC(=O)Nc4c(C(C)C)cccc4C(C)C)CC3)nc12 [Example 97, 2-[4-[2-(5-chloro-7-isopropyl-4-methylbenzoxazol-2-ylthio)ethyl]piperazin-1-yl]-N-(2,6-diisopropylphenyl)acetamide] | 162 to 163 °C
34 | CC(C)c1cc(C(C)C)c(NC(=O)CN2CCN(CCSc3nc4ccccc4o3)CC2)c(C(C)C)c1 [Example 48, 2-[4-[2-(benzoxazol-2-ylthio)ethyl]piperazin-1-yl]-N-(2,4,6-triisopropylphenyl)acetamide] | 160 to 163 °C
35 | CCCCCCCN(CCN1CCN(CCSc2nc3cccc(C(F)(F)F)c3o2)CC1)C(=O)Nc1c(C(C)C)cc(O)cc1C(C)C.Cl | 95 to 97 °C
36 | Cc1cc(SC(C)C)c(NC(=O)CN2CCN(CCSc3nc4ncccc4o3)CC2)c(SC(C)C)n1.Cl.Cl | 170 to 172 °C
37 | CC(=O)Oc1cc(C(C)C)c(NC(=O)CN2CCN(CCSc3nc4ccccc4o3)CC2)c(C(C)C)c1 [Example 73, 2-[4-[2-(benzoxazol-2-ylthio)ethyl]piperazin-1-yl]-N-(4-acetoxy-2,6-diisopropylphenyl)acetamide] | 126 to 129 °C
38 | CC(C)c1cc([N+](=O)[O-])c(O)c(C(C)C)c1NC(=O)CN1CCN(CCSc2nc3ccccc3o2)CC1 [Example 66, 2-[4-[2-(benzoxazol-2-ylthio)ethyl]piperazin-1-yl]-N-(2,6-diisopropyl-3-hydroxy-4-nitrophenyl)acetamide] | 139 to 141 °C
